Assay type in all cases: in vivo
The test system of assay [1] is Zea mays. Kind of assay: Drought stress test on greenhouse crop plants, spray application, efficacy vs untreated stressed control (ZEAMX). The settings on record: dosage 25 g/ha. As for the experimental part:
(§1) Seeds of monocotyledonous and dicotyledonous crop plants were laid out in sandy loam in wood-fiber pots, covered with soil or sand and cultivated in a greenhouse under good growth conditions. The test plants were treated at the early leaf stage (BBCH10-BBCH13). To assure uniform water supply before commencement of stress, the potted plants were supplied with water by dam irrigation prior to substance application. The compounds according to the invention, formulated in the form of wettable powders (WP), were sprayed onto the green parts of the plants as an aqueous suspension at an equivalent water application rate of 600 l/ha with addition of 0.2% wetting agent (e.g. agrotin). Substance application was followed immediately by stress treatment of the plants. For this purpose, the pots were transferred into plastic inserts in order to prevent them from subsequently drying out too quickly. […] After the recovery phase had ended, the intensities of damage were analyzed in visual comparison to untreated, unstressed controls of the same age. The intensity of damage was first recorded as a percentage (100%=plants have died, 0%=like control plants). […] EF: efficacy (%) DVus: damage value of the untreated, stressed control DVts: damage value of the plants treated with test compound In each trial, 3 pots per crop and dosage were treated and evaluated; the resulting efficacies are thus averages. […]

The subject of assay [2] is Brassica napus. Kind of assay: Drought stress test on greenhouse crop plants, spray application, efficacy vs untreated stressed control (BRSNS). To be noted: dosage 250 g/ha. As for the experimental part:
as §1

Assay [3] has as its system Triticum aestivum. The experiment in a line: Drought stress test on greenhouse crop plants, spray application, efficacy vs untreated stressed control (TRZAS). The settings on record: dosage 25 g/ha. As for the experimental part: as §1

As to `COC(=O)c1ccccc1C#CC1(O)C(C)CCCC1C` (centres unmarked) [I.13-116, Methyl 2-[(1-hydroxy-2,6-dimethylcyclohexyl)ethynyl]benzoate], the “EF (ZEAMX)” value in assay [1] was greater than 5%.
As to `CC1CCCC(C)(C)C1(O)C#Cc1ccccc1C(=O)O` (centres unmarked) [I.1-107, 2-[(1-Hydroxy-2,2,6-trimethylcyclohexyl)ethynyl]benzoic acid], the “EF (BRSNS)” value in assay [2] is given as greater than 5%.
For `COC(=O)c1ccccc1C#CC1(O)C(C)CCCC1(C)C` (centres unmarked) [I.1-116, Methyl 2-[(1-hydroxy-2,2,6-trimethylcyclohexyl)ethynyl]benzoate], the “EF (BRSNS)” value in assay [2] is greater than 5%. For the same compound, the “EF (TRZAS)” value in assay [3] is listed as greater than 5%. In assay [1], the “EF (ZEAMX)” value is on record as greater than 5%.

These data come from US20150305334A1, “USE OF SUBSTITUTED 1-(ARYL ETHYNYL)-, 1-(HETEROARYL ETHYNYL)-, 1-(HETEROCYCLYL ETHYNYL)- AND 1-(CYCLOALKENYL ETHYNYL)-CYCLOHEXANOLS AS ACTIVE AGENTS AGAINST ABIOTIC PLANT STRESS” (BAYER CROPSCIENCE AG, priority 2012, published 2015).
